These results are taken from paper PMC4133103 (DNA repair, 2014).

Like-named read-outs stand apart in the source and are kept apart here.

The test system of data set [1] is Salmonella typhimurium (TA98). As to conditions: cited from earlier work.
For the next data set, the target named is T1, Dpo4•DNA binary complex (Saccharolobus solfataricus, UniProt Q97W02).
T1 sequence (Q97W02 1-352): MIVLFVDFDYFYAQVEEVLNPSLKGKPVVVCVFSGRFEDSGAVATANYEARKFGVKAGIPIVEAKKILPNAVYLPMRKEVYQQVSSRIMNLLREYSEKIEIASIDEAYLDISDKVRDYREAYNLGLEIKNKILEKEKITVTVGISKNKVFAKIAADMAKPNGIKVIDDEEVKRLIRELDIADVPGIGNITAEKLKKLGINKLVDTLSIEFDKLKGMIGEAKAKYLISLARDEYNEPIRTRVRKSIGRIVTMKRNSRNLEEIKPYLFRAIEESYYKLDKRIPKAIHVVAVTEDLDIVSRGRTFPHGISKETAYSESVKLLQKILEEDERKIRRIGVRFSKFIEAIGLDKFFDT
In words: Substrate specificity assay. The class given is biochemical, Sulfolobus solfataricus. As to conditions: for Probability: efficiency/sum of efficiencies × 100; for kp / Kd: Dpo4 120 nM, 37 °C; for Fidelity: incorrect/(correct+incorrect) efficiency; for Kd: read-out: Kd,dNTP.

Data set [2] deals with nucleotide excision repair-deficient human XPA cells. As to conditions: cited from earlier work.
For a further data set, the target named is T2, Dpo4 (DNA polymerase IV) (Sulfolobus solfataricus, UniProt Q97W02 1-352).
T2 sequence: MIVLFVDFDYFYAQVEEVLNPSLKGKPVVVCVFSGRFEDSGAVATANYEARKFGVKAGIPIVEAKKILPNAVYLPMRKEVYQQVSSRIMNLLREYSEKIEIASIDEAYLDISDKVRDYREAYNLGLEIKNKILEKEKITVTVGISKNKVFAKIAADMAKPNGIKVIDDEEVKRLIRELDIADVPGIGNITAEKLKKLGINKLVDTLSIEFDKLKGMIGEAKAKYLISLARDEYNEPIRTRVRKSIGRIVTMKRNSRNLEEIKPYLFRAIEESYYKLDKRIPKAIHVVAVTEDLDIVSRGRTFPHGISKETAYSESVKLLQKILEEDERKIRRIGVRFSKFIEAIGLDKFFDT
The experiment in a line: EMSA. (A gel shift assay detects complexes by their altered migration in electrophoresis.)

Where [3] appears, read: DNA substrate 18/26-mer-dG^C8-N-ABA.
The mark [4] stands for this setting: DNA substrate 18/26-mer-dG^C8-N-ABA vs control 18/26-mer.
Setting [5] is: DNA substrate 19/26-mer-dG^C8-N-ABA.
The mark [6] stands for this setting: DNA substrate 19/26-mer-dG^C8-N-ABA 30 nM.
Where [7] appears, read: DNA substrate 19/26-mer-dG^C8-N-ABA vs control 19/26-mer.
Where [8] appears, read: DNA substrate 20/26-mer-dG^C8-N-ABA (pause site).
[9] abbreviates: DNA substrate 20/26-mer-dG^C8-N-ABA vs control 20/26-mer.
The mark [10] stands for this setting: DNA substrate 20/26-mer-dG^C8-N-ABA.
Setting [11] is: DNA substrate 21/26-mer-dG^C8-N-ABA (pause site).
Setting [12] is: DNA substrate 21/26-mer-dG^C8-N-ABA (pause site) 30 nM.
Where [13] appears, read: DNA substrate 21/26-mer-dG^C8-N-ABA vs control 21/26-mer.
[14] abbreviates: DNA substrate 21/26-mer-dG^C8-N-ABA.
The mark [15] stands for this setting: DNA substrate 22/26-mer-dG^C8-N-ABA.
Where [16] appears, read: DNA substrate 22/26-mer-dG^C8-N-ABA vs control 22/26-mer.
The mark [17] stands for this setting: DNA substrate 18/26-mer-dG^C8-N-ABA 30 nM.
Setting [18] is: DNA substrate 21/26-mer-dG^C8-N-ABA (pause site, extension) 30 nM.
The mark [19] stands for this setting: DNA substrate 22/26-mer-dG^C8-N-ABA 30 nM.
The mark [20] stands for this setting: DNA substrate 20/26-mer-dG^C8-N-ABA (pause site) 30 nM.

Consider `O=C1c2ccccc2-c2ccc([N+](=O)[O-])c3cccc1c23` [3-NBA, 3-Nitrobenzanthrone], for which, in data set [1], the mutagenicity entry is “one of the most mutagenic compound ever tested”.
As usually defined, the Kd is the free concentration of one partner at which half of the binding sites on the other are occupied at equilibrium, for simple one-to-one binding. With `Nc1ncnc2c1ncn2[C@H]1C[C@H](O)[C@@H](COP(=O)(O)OP(=O)(O)OP(=O)(O)O)O1` [dATP], the “(kp/Kd, dNTP)damaged” value on Dpo4•DNA binary complex (setting [3]) turned out to be 9.1 M⁻¹ s⁻¹; at Dpo4•DNA binary complex (setting [5]), 6.7 M⁻¹ s⁻¹; on Dpo4•DNA binary complex (setting [8]), 3 M⁻¹ s⁻¹; at Dpo4•DNA binary complex (setting [11]), 1 M⁻¹ s⁻¹; on Dpo4•DNA binary complex (setting [15]) it was 11 M⁻¹ s⁻¹. The “Efficiency Ratio (kp/Kd, dNTP)control/(kp/Kd, dNTP)damaged” value (from here on “Efficiency Ratio”) on Dpo4•DNA binary complex (setting [4]) came out at 0.85; on Dpo4•DNA binary complex (setting [7]) it was 2.1; at Dpo4•DNA binary complex (setting [9]), 6.3; on Dpo4•DNA binary complex (setting [13]), 2.4; on Dpo4•DNA binary complex (setting [16]), 0.38. Also, the Probability is 0.01 on Dpo4•DNA binary complex (setting [3]); 0.07 on Dpo4•DNA binary complex (setting [5]); 0.61 at Dpo4•DNA binary complex (setting [10]); 3.83 on Dpo4•DNA binary complex (setting [14]); 0.34 at Dpo4•DNA binary complex (setting [15]). Moreover, the kp result at Dpo4•DNA binary complex (setting [6]) was “(2.9 ± 0.2) × 10^−3 s^−1”; at Dpo4•DNA binary complex (setting [12]) it was “(4.5 ± 0.2) × 10^−4 s^−1”. In addition, the Fidelity at Dpo4•DNA binary complex (setting [5]) is 7.0 × 10^−4; on Dpo4•DNA binary complex (setting [10]), 6.1 × 10^−4; on Dpo4•DNA binary complex (setting [14]), 4.3 × 10^−2; at Dpo4•DNA binary complex (setting [15]), 3.4 × 10^−4. Moreover, the Kd at Dpo4•DNA binary complex (setting [17]) was 2200 ± 600 µM; at Dpo4•DNA binary complex (setting [6]) it was 430 ± 60 µM; on Dpo4•DNA binary complex (setting [18]) it was 450 ± 50 µM; at Dpo4•DNA binary complex (setting [19]), 470 ± 70 µM.
As to `Nc1ccn([C@H]2C[C@H](O)[C@@H](COP(=O)(O)OP(=O)(O)OP(=O)(O)O)O2)c(=O)n1` [dCTP], the “(kp/Kd, dNTP)damaged” value was found to be 88000 M⁻¹ s⁻¹ at Dpo4•DNA binary complex (setting [3]), 6.4 M⁻¹ s⁻¹ at Dpo4•DNA binary complex (setting [5]), 490 M⁻¹ s⁻¹ at Dpo4•DNA binary complex (setting [8]) and 2.7 M⁻¹ s⁻¹ on Dpo4•DNA binary complex (setting [11]). For the same molecule, the kp at Dpo4•DNA binary complex (setting [17]) was 2.83 ± 0.08 s⁻¹; at Dpo4•DNA binary complex (setting [6]), “(1.4 ± 0.2) × 10^−3 s^−1”; on Dpo4•DNA binary complex (setting [20]) it was 0.25 ± 0.02 s⁻¹; on Dpo4•DNA binary complex (setting [12]), “(4.3 ± 0.1) × 10^−4 s^−1”; at Dpo4•DNA binary complex (setting [19]), 4.5 ± 0.7 s⁻¹. The “Efficiency Ratio” value on Dpo4•DNA binary complex (setting [4]) is reported as 1.25; at Dpo4•DNA binary complex (setting [7]), 22; on Dpo4•DNA binary complex (setting [9]), 120; on Dpo4•DNA binary complex (setting [13]), 12; on Dpo4•DNA binary complex (setting [16]), 11. The Probability on Dpo4•DNA binary complex (setting [3]) stood at 99.95; on Dpo4•DNA binary complex (setting [5]), 0.06; on Dpo4•DNA binary complex (setting [10]) it was 98.93; on Dpo4•DNA binary complex (setting [14]), 10.34; on Dpo4•DNA binary complex (setting [15]), 99.55. The Fidelity on Dpo4•DNA binary complex (setting [5]) is given as 6.7 × 10^−4; on Dpo4•DNA binary complex (setting [14]) it was 1.1 × 10^−1. Further, the dissociation constant (Kd) at Dpo4•DNA binary complex (setting [17]) turned out to be 32 ± 5 µM; on Dpo4•DNA binary complex (setting [6]) it was 220 ± 80 µM; at Dpo4•DNA binary complex (setting [18]), 160 ± 20 µM; at Dpo4•DNA binary complex (setting [19]) it was 1400 ± 300 µM.
Take `Nc1nc2c(ncn2[C@H]2C[C@H](O)[C@@H](COP(=O)(O)OP(=O)(O)OP(=O)(O)O)O2)c(=O)[nH]1` [dGTP]: the “(kp/Kd, dNTP)damaged” value on Dpo4•DNA binary complex (setting [3]) worked out at 18 M⁻¹ s⁻¹; at Dpo4•DNA binary complex (setting [5]), 9600 M⁻¹ s⁻¹; at Dpo4•DNA binary complex (setting [8]), 0.68 M⁻¹ s⁻¹; on Dpo4•DNA binary complex (setting [11]), 22 M⁻¹ s⁻¹; at Dpo4•DNA binary complex (setting [15]), 1.3 M⁻¹ s⁻¹. Moreover, the “Efficiency Ratio” value at Dpo4•DNA binary complex (setting [4]) turned out to be 1.6; at Dpo4•DNA binary complex (setting [7]), 2.6; at Dpo4•DNA binary complex (setting [9]) it was 66; on Dpo4•DNA binary complex (setting [13]), 170; on Dpo4•DNA binary complex (setting [16]), 6.5. Also, the Probability at Dpo4•DNA binary complex (setting [3]) was found to be 0.02; on Dpo4•DNA binary complex (setting [5]), 99.82; on Dpo4•DNA binary complex (setting [10]) it was 0.14; at Dpo4•DNA binary complex (setting [14]) it was 84.26; on Dpo4•DNA binary complex (setting [15]), 0.04. For the same molecule, the kp at Dpo4•DNA binary complex (setting [6]) is 0.48 ± 0.02 s⁻¹; on Dpo4•DNA binary complex (setting [20]), “(8.1 ± 0.1) × 10^−4 s^−1”; at Dpo4•DNA binary complex (setting [12]), “(8.9 ± 0.7) × 10^−4 s^−1”. In addition, the Fidelity at Dpo4•DNA binary complex (setting [10]) is recorded as 1.4 × 10^−4; at Dpo4•DNA binary complex (setting [15]), 4.1 × 10^−4. The Kd at Dpo4•DNA binary complex (setting [17]) is 350 ± 40 µM; on Dpo4•DNA binary complex (setting [6]) it was 50 ± 9 µM; on Dpo4•DNA binary complex (setting [18]), 400 ± 80 µM; at Dpo4•DNA binary complex (setting [19]) it was 1100 ± 200 µM.
As for `Nc1nc2c(nc(Nc3ccc4c5c(cccc35)C(=O)c3ccccc3-4)n2[C@H]2C[C@H](O)[C@@H](CO)O2)c(=O)[nH]1` [dG^C8-N-ABA, N-(2’-deoxyguanosin-8-yl)-3-aminobenzanthrone], the “replication block among the three major 3-NBA derived DNA adducts” value in data set [2] is given as “strongest replication block”. The mutational frequency in data set [2] (primarily G-to-A transitions followed by G-to-T transversions) is on record as 30.6%.
On to `Cc1cn([C@H]2C[C@H](O)[C@@H](COP(=O)(O)OP(=O)(O)OP(=O)(O)O)O2)c(=O)[nH]c1=O` [dTTP], for which the “(kp/Kd, dNTP)damaged” value on Dpo4•DNA binary complex (setting [3]) stood at 16 M⁻¹ s⁻¹; at Dpo4•DNA binary complex (setting [5]) it was 5.5 M⁻¹ s⁻¹; on Dpo4•DNA binary complex (setting [8]) it was 1.6 M⁻¹ s⁻¹; at Dpo4•DNA binary complex (setting [11]), 0.4 M⁻¹ s⁻¹; at Dpo4•DNA binary complex (setting [15]) it was 2.2 M⁻¹ s⁻¹. Moreover, the “Efficiency Ratio” value on Dpo4•DNA binary complex (setting [4]) is on record as 5.4; on Dpo4•DNA binary complex (setting [7]), 1.6; on Dpo4•DNA binary complex (setting [9]), 52; on Dpo4•DNA binary complex (setting [13]), 4.5; on Dpo4•DNA binary complex (setting [16]), 5.0. The Probability was 0.02 on Dpo4•DNA binary complex (setting [3]); 0.05 on Dpo4•DNA binary complex (setting [5]); 0.32 at Dpo4•DNA binary complex (setting [10]); 1.57 at Dpo4•DNA binary complex (setting [14]); 0.07 on Dpo4•DNA binary complex (setting [15]). Further, the Fidelity on Dpo4•DNA binary complex (setting [5]) was 5.7 × 10^−4; at Dpo4•DNA binary complex (setting [14]), 1.8 × 10^−2; at Dpo4•DNA binary complex (setting [15]), 6.9 × 10^−4. In addition, the kp result at Dpo4•DNA binary complex (setting [12]) was “(1.7 ± 0.1) × 10^−4 s^−1”. Further, the results for the dissociation constant (Kd) at Dpo4•DNA binary complex (setting [18]) and on Dpo4•DNA binary complex (setting [19]) were 420 ± 80 µM and 770 ± 140 µM, respectively.

B1: 22/26-mer-dGC8-N-ABA (dsDNA)
DNA 1: AACGACGGCCAGTGAATTCGCG
DNA 2: CCCGCGCGAATTCACTGGCCGTCGTT
modifications: N-(2'-deoxyguanosin-8-yl)-3-aminobenzanthrone (dGC8-N-ABA) at G6 of strand 2 (from 5' end)
On to B1, for which binding with Dpo4 (DNA polymerase IV) was characterised by a dissociation constant (Kd) of 0.005 ± 0.0009 µM.

B2: 21/26-mer-dGC8-N-ABA (dsDNA)
DNA 1: AACGACGGCCAGTGAATTCGC
DNA 2: CCCGCGCGAATTCACTGGCCGTCGTT
modifications: N-(2'-deoxyguanosin-8-yl)-3-aminobenzanthrone (dGC8-N-ABA) at G6 of strand 2 (from 5' end)
In turn, B2 returned a Kd with Dpo4 (DNA polymerase IV) of 0.029 ± 0.007 µM.
